Test results published in patent publication US20250000869A1, “TOPICAL COMPOSITIONS OF 2-PHENYL-3, 4-DIHYDROPYRROLO [2, L-F] [1, 2, 4] TRIAZINONE DERIVATIVES AND USES THEREOF” (TOPADUR PHARMA AG, priority 2021, published 2025).

Legend:
[1] = Solubility screening of Compound 1 in various solvents/solvent systems; assay type: physicochemical; settings: read-out: Determined Solubility
Text: A solubility screening of Compound 1 was effected. […] In general, three potential approaches where covered: i) polar organic co-solvents, ii) solubilization by surfactants and iii) oils which may, in particular, serve as a basis of an emulsion gel. A phosphate buffer of pH 6.5 with low molarity was used as this salt and pH is suitable for application on wounds. It is of note that the resulting pH of the screened systems is about 7.3.

[2] = Solubility of Compound 1 in solvent systems comprising PEG400; assay type: physicochemical; settings: room temperature, read-out: Determined Solubility
Text: A solubility study of Compound 1 in solvent systems comprising PEG400 in various concentrations was effected.

uPAR−/− mice = experiment: Healing of full thickness excisional cutaneous wounds after topical, on wound administration; assay type: in vivo
Text: The urokinase-type plasminogen activator receptor deficient (uPAR−/−) mouse that reproduces cardinal features of SSc (dermal) vasculopathy and fibrosis is an animal model of systemic sclerosis that is considered as disease-relevant. The uPAR−/− mouse integrates apoptosis of dermal endothelial cells, a decreased density of dermal microvessels and endothelial to mesenchymal transition reflecting vasculopathy with dermal thickening, collagen accumulation, enhanced myofibroblast counts reflecting skin fibrosis. uPAR−/− induces and develops dermal and pulmonary fibrosis (Manetti M et al. Ann Rheum Dis. (2014) 73:1700-1709; Manetti M et al Ann Rheum Dis. (2017) 76:924-934; Schniering J et al., (2019) In Atlas of Ulcers in Systemic Sclerosis. Diagnosis and Management. Matucci-Cerinic M and Denton C P (eds). Springer, Chain, Switzerland, pp. 27-37).
uPAR−/− mice were bred from mating of heterozygotes (uPAR+/−; obtained from Institute for Translational Neurology and Neurology Clinics, University of Munster, Germany). Pups were genotyped and uPAR−/− mice obtained at Mendelian frequency. Two full thickness, excisional cutaneous wounds (6 mm diameter corresponding to an area of 28.3 mm^2) were generated, symmetrically to the dorsum midline. To this end, at the day before surgery, mice were anaesthetized with Isoflurane and their dorsum was shaved using Veet® depilatory cream and clippers. At the next following day, preoperative analgesia was administered at 30 min before surgery consisting of 0.1 mg/kg of Buprenorphine and 5 mg/kg of Ketoprofen. Animals were anesthetized with Isoflurane. Two full thickness wounds (including epidermis, dermis, hypodermis, panniculus carnosus; depth about 500 μm) of 6 mm diameter each were created using a biopsy punch and scissors each with identical, at least 10 mm distance left or right from the dorsum midline. To minimize wound contraction, wounds were splinted using a silicon splint (Grace Bio-Labs silicone wound splints, red with suture sites, outer diameter×inner diameter×thickness 14 mm×7 mm×0.5 mm). Splints were kept in place using six interrupted surgical sutures (6/0 polyamide-Ethylon) and Superglue (ethyl 2-cyanoacrylate glue) (Park S A et al. Wound Repair Regen. (2014) 22(3):368-380; Park S A et al. Wound Repair Regen. (2015) 23(2):251-261).
The cutaneous ulcers and the splint were protected using a plastic cover maintained using a non-woven adhesive dressing (Hypafix® (Smith & Nephew)) and a semiocclusive adhesive transparent dressing (Tegaderm™, (3M™)). Ketoprofen (5 mg/kg) and Buprenorphine (0.05 mg/kg) were administered for 3 days and then Buprenorphine (0.05 mg/kg) as needed. The estimated volume of a cutaneous ulcer was 28.3 mm^2 area×0.5 mm depth=14.15 mm^3 or 14.15 μl. […]

Plasma protein binding = assay type: in vitro ADME; settings: mouse, mice, read-out: unbound fraction (fu), plasma protein binding
PDE5 = PDE5 (Homo sapiens, UniProt O76074); experiment: IC50 of Compound 1 (earlier effected measurements); assay type: biochemical
rat aortic rings = experiment: Relaxation of rat aortic rings; settings: earlier effected measurements

## CCCOc1ccc(S(=O)(=O)N2CCC(CCO[N+](=O)[O-])CC2)cc1-c1nn2c(CCC)c(/C=N/O)c(C)c2c(=O)[nH]1 [Compound 1, 2-[1-(3-{6-[(1E)-(hydroxyimino)methyl]-5-methyl-4-oxo-7-propyl-3H,4H-pyrrolo[2,1-f][1,2,4]triazin-2-yl}-4-propoxybenzenesulfonyl)piperidin-4-yl]ethyl nitrate]
[1]; 1% poloxamer 407 in phosphate buffer, pH 6.5, aqueous with cosolvent or surfactant or cyclodextrin, 1% poloxamer 407 in PB, PB = Phosphate buffer 10 mmol/L pH 6.5
  solubility: 270 µg/mL
[1]; 1% polysorbate 80 in phosphate buffer, pH 6.5, aqueous with cosolvent or surfactant or cyclodextrin, 1% polysorbate 80 in PB, PB = Phosphate buffer 10 mmol/L pH 6.5
  solubility: 77 µg/mL
[1]; 3% polysorbate 80 in phosphate buffer, pH 6.5, aqueous with cosolvent or surfactant or cyclodextrin, 3% polysorbate 80 in PB, PB = Phosphate buffer 10 mmol/L pH 6.5
  solubility: 139 µg/mL
[1]; 8% polysorbate 80 in phosphate buffer + 3% benzyl alcohol, pH 6.5, aqueous with cosolvent or surfactant or cyclodextrin, 8% polysorbate 80 in PB + 3% benzyl alcohol, PB = Phosphate buffer 10 mmol/L pH 6.5
  solubility: 56 µg/mL
[1]; 8% polysorbate 80 in phosphate buffer + 10% MCT, pH 6.5, aqueous with cosolvent or surfactant or cyclodextrin, 8% polysorbate 80 in PB + 10% MCT, PB = Phosphate buffer 10 mmol/L pH 6.5
  solubility: 37 µg/mL
[1]; 8% polysorbate 80 in phosphate buffer + 10% ethanol, pH 6.5, aqueous with cosolvent or surfactant or cyclodextrin, 8% polysorbate 80 in PB + 10% ethanol, PB = Phosphate buffer 10 mmol/L pH 6.5
  solubility: 43 µg/mL
[1]; 8% polysorbate 80 in phosphate buffer + 10% poloxamer 407, pH 6.5, aqueous with cosolvent or surfactant or cyclodextrin, 8% polysorbate 80 in PB + 10% poloxamer 407, PB = Phosphate buffer 10 mmol/L pH 6.5
  solubility: 63 µg/mL
[1]; 8% polysorbate 80 in phosphate buffer, pH 6.5, aqueous with cosolvent or surfactant or cyclodextrin, 8% polysorbate 80 in PB, PB = Phosphate buffer 10 mmol/L pH 6.5
  solubility: 67 µg/mL
[1]; 10% poloxamer 407 in phosphate buffer, pH 6.5, aqueous with cosolvent or surfactant or cyclodextrin, 10% poloxamer 407 in PB, PB = Phosphate buffer 10 mmol/L pH 6.5
  solubility: 23.2 µg/mL
[1]; PEG 400/phosphate buffer (30:70, vol:vol), pH 6.5, aqueous with cosolvent or surfactant or cyclodextrin, PEG 400/PB (30:70, vol:vol), PB = Phosphate buffer 10 mmol/L pH 6.5
  solubility: 1 µg/mL
[1]; PEG 400/phosphate buffer (70:30, vol:vol), pH 6.5, aqueous with cosolvent or surfactant or cyclodextrin, PEG 400/PB (70:30, vol:vol), PB = Phosphate buffer 10 mmol/L pH 6.5
  solubility: 110 µg/mL
[1]; isopropyl myristate (IPM), oil or lipid, Isopropyl myristate (IPM)
  solubility: 93 µg/mL
[1]; medium chain triglycerides (MCT), oil or lipid, Medium chain triglycerides (MCT)
  solubility: 282 µg/mL
[1]; octyldodecanol (Kollicream OD), oil or lipid, Octyldodecanol (Kollicream OD)
  solubility: 28 µg/mL
[1]; pH 6.5, aqueous with cosolvent or surfactant or cyclodextrin, PEG 400/PB (30:70, vol:vol) + 3% benzyl alcohol, PB = Phosphate buffer 10 mmol/L pH 6.5
  solubility: 8 µg/mL
[1]; pH 6.5, aqueous with cosolvent or surfactant or cyclodextrin, PEG 400/PB (30:70, vol:vol) + 3% polysorbate 80, PB = Phosphate buffer 10 mmol/L pH 6.5
  solubility: 20 µg/mL
[1]; pH 6.5, aqueous with cosolvent or surfactant or cyclodextrin, PEG 400/PB (30:70, vol:vol) + 10% poloxamer 407, PB = Phosphate buffer 10 mmol/L pH 6.5
  solubility: 54 µg/mL
[1]; polyethylene glycol PEG 400, organic solvent or mixture, Polyethylene glycol PEG 400
  solubility: 10500 µg/mL
[2]; aqueous with cosolvent or surfactant or cyclodextrin, PEG400:benzyl alcohol:phosphate buffer (44:1:55) vol:vol, Phosphate buffer 12 mmol/L pH 6.7
  solubility: 0.861 µg/mL
[2]; aqueous with cosolvent or surfactant or cyclodextrin, PEG400:benzyl alcohol:phosphate buffer (49:1:50) vol:vol, Phosphate buffer 12 mmol/L pH 6.7
  solubility: 2.18 µg/mL
[2]; aqueous with cosolvent or surfactant or cyclodextrin, PEG400:benzyl alcohol:phosphate buffer (54:1:45) vol:vol, Phosphate buffer 12 mmol/L pH 6.7
  solubility: 5 µg/mL
[2]; aqueous with cosolvent or surfactant or cyclodextrin, PEG400:benzyl alcohol:phosphate buffer (59:1:40) vol:vol, Phosphate buffer 12 mmol/L pH 6.7
  solubility: 12.8 µg/mL
[2]; aqueous with cosolvent or surfactant or cyclodextrin, PEG400:benzyl alcohol:phosphate buffer (64:1:35) vol:vol, Phosphate buffer 12 mmol/L pH 6.7
  solubility: 37 µg/mL
[2]; aqueous with cosolvent or surfactant or cyclodextrin, PEG400:benzyl alcohol:phosphate buffer (69:1:30) vol:vol, Phosphate buffer 12 mmol/L pH 6.7
  solubility: 112 µg/mL
[2]; aqueous with cosolvent or surfactant or cyclodextrin, PEG400:benzyl alcohol:phosphate buffer (79:1:20) vol:vol, Phosphate buffer 12 mmol/L pH 6.7
  solubility: 882 µg/mL
[2]; aqueous with cosolvent or surfactant or cyclodextrin, PEG400:benzyl alcohol:phosphate buffer (89:1:10) vol:vol, Phosphate buffer 12 mmol/L pH 6.7
  solubility: 1770 µg/mL
[2]; organic solvent or mixture, PEG400:benzyl alcohol (99:1) vol:vol
  solubility: 12700 µg/mL
uPAR−/− mice; uPAR−/− mice, based on means of % Wound Closure from day 5 to day 8
  acceleration of wound closure versus Vehicle: about 1 day
uPAR−/− mice; uPAR−/− mice, day 0-7
  AUEC for % wound closure compared to vehicle: significant increase
uPAR−/− mice; uPAR−/− mice, once daily topical, in form of Topical Composition A2
  healing of full thickness excisional cutaneous wounds (conclusion): improved
uPAR−/− mice; uPAR−/− vs uPAR+/+ mice, from AUEC (Table 6)
  part of wound closure delay associated with uPAR deficiency restored: about half
Plasma protein binding
  fraction unbound: 0.0008
PDE5
  IC50: 1.18 nM
Rat aortic rings
  IC40 for relaxation of rat aortic rings: 8 µM
